Experimental data taken from ChEMBL document CHEMBL2169859, “Modulation of tau protein fibrillization by oleocanthal” (J Nat Prod, 2012).
Activity calls are given as the source filed them.

How the values were obtained:
[1] = species on record: Homo sapiens; assay: Binding affinity to human recombinant Tau 2N4R expressed in Escherichia coli at 0.1 to 25 uM by SPR analysis
[2] = species on record: Homo sapiens; assay: Binding affinity to human recombinant Tau 2N4R expressed in Escherichia coli assessed as change in protein conformation at 10 mM measured for 60 mins by H/D exchange mass spectrometric analysis
[3] = species on record: Homo sapiens; assay: Inhibition of arachidonic acid-induced human recombinant Tau 2N4R fibrillation expressed in Escherichia coli assessed as alpha helix formation at 125 uM preincubated for 1 hr prior to arachidonic acid challenge measured 28 hrs post arachidonic challenge by CD spectroscopic analysis
[4] = species on record: Homo sapiens; assay: Inhibition of arachidonic acid-induced human recombinant Tau 2N4R fibrillation expressed in Escherichia coli preincubated for 1 hr prior to arachidonic acid challenge measured 6 hrs post arachidonic challenge by Thioflavin-S fluorescence assay
[5] = species on record: Homo sapiens; assay: Inhibition of human recombinant Tau 2N4R fibrillation expressed in Escherichia coli assessed as alpha helix formation at 125 uM after 1 hr by CD spectroscopic analysis

C/C=C(/C=O)[C@@H](CC=O)CC(=O)OCCc1ccc(O)cc1
active: Activity [1] | Activity [2] | inhibition [3] | inhibition [4] Dose-dependent effect | inhibition [5]
